Earlier results on one compound are cited in US20160128943A1, “CONTROLLED RELEASE CAFFEINE DOSAGE FORMS” (priority 2013, published 2016).

For one data set, the system named is central nervous system. Conditions: after absorption.

`Cn1c(=O)c2c(ncn2C)n(C)c1=O` [caffeine]: the “time to maximum effect of central nervous system stimulation” value in the data set on central nervous system was “thirty and sixty”. Further, the “time to peak levels in the circulation of the bloodstream” value (after consumption) was “fifteen and forty-five”. For the same compound, the average half-life result (average person, after ingestion) is “three and one half”.
